Data on 20 compounds can be found in ChEMBL document CHEMBL1145940, “Computer modeling of selective regions in the active site of nitric oxide synthases: implication for the design of isoform-selective inhibitors” (J Med Chem, 2003).

Test [1] in a line: Inhibitory activity against endothelial nitric oxide synthase (eNOS).
Test [2] is described as follows: Inhibitory activity against Inducible nitric oxide synthase.
A short description of test [3]: Inhibitory activity against neuronal nitric oxide synthase.
Test [4] is described as follows: Selectivity for neuronal over endothelial nitric oxide synthase.

Peptide text beside a SMILES is read from it.

On to `NCCCNC[C@@H](N)CCC/N=C(\N)N[N+](=O)[O-]`, for which the Ki (as a rule, a measure of affinity in units of concentration, obtained from inhibition or displacement) stood at 411 µM in test [1] and 123 µM in test [2].

Take `NCNC[C@@H](N)CCC/N=C(/N)N[N+](=O)[O-]`: the values for the Ki in test [1], in test [2] and in test [3] were 314 µM, 39 µM and 0.12 µM, respectively. The compound further came in with a Selectivity in test [4] of 2580.

Turning to `N=C(NCCC[C@H](N)C(=O)N[C@@H]1CN[C@@H](C(N)=O)C1)N[N+](=O)[O-]`, the inhibitory constant (Ki) in test [1] was determined as 110 µM; in test [2], 200 µM.

`NC[C@H](NC(=O)[C@@H](N)CCC/N=C(\N)N[N+](=O)[O-])C(N)=O` (HELM PEPTIDE1{[N=C(NCCC[C@H](N)C(=O)[*:2])N[N+](=O)[O-]].[NC[C@H](N[*:1])C(=O)[*:2]].[am]}$$$$V2.0): the Ki in test [1] was 200 µM; in test [2], 25 µM; in test [3], 0.31 µM.

For the compound `N/C(=N\CCC[C@H](N)CNCc1cccnc1)N[N+](=O)[O-]`, the Ki in test [1] is 193 µM; in test [2], 395 µM; in test [3], 0.76 µM. Moreover, the Selectivity in test [4] came out at 254.

Take `NCc1ccccc1NC[C@@H](N)CCC/N=C(\N)N[N+](=O)[O-]`: the values for the Ki in test [1], in test [2] and in test [3] were 39.8 µM, 29.3 µM and 5.55 µM, respectively. The Selectivity in test [4] was found to be 7.17.

For `NCCc1ccc(NC[C@@H](N)CCC/N=C(\N)N[N+](=O)[O-])cc1`, the affinity in test [3], expressed as Ki, was 1.66 µM.

With `Cc1c(C)c2c(c(C)c1O)CC[C@@](C)(C(=O)C1CCC(c3ccc(NC(=N)c4cccs4)cc3)CC1)O2` (stereo partly drawn), the values for the Ki in test [1] and in test [2] were 110 µM and greater than 300 µM, respectively.

Take `NCc1ccc(NC[C@@H](N)CCC/N=C(\N)N[N+](=O)[O-])cc1`: the Ki in test [1] was found to be 409 µM; in test [2], 335 µM; in test [3], 1.37 µM. Further, in test [4], the Selectivity worked out at 299.

For the compound `NCCCC[C@H](N)C(=O)N[C@H](CCC/N=C(\N)N[N+](=O)[O-])C(N)=O` (HELM PEPTIDE1{K.[N=C(NCCC[C@@H](N[*:1])C(=O)[*:2])N[N+](=O)[O-]].[am]}$$$$V2.0), the Ki in test [1] is 229 µM; in test [2], 4700 µM; in test [3] it was 1.7 µM.

On to `N/C(=N/CCC[C@H](N)CNc1cccnc1)N[N+](=O)[O-]`, for which the Ki was 523 µM in test [1], 141 µM in test [2] and 0.55 µM in test [3]. This compound came in with a Selectivity in test [4] of 951.

As to `COC(=O)[C@@H](CCCNC(=N)N[N+](=O)[O-])NC(=O)[C@H](N)Cc1ccccc1` (HELM PEPTIDE1{[dF].[N=C(NCCC[C@@H](N[*:1])C(=O)[*:2])N[N+](=O)[O-]].[CO[*:1]]}$$$$V2.0), the values for the Ki in test [1], in test [2] and in test [3] were 5 µM, 3600 µM and 2 µM, respectively. The compound also came in with a Selectivity in test [4] of 2.5.

Take `NC(=O)[C@@H](CCC/N=C(/N)N[N+](=O)[O-])NC(=O)[C@H](N)Cc1ccccc1`: the results for the Ki in test [1] and in test [3] were 90 µM and 17 µM, respectively. Also, the Selectivity in test [4] worked out at 5.3.

As to `CCCCC[C@H]1NC(=N)C[C@H]1C`, the results for the Ki in test [1], in test [2] and in test [3] were 226 µM, 0.25 µM and 3.2 µM, respectively.

In the case of `COC(=O)[C@@H](CCC/N=C(\N)N[N+](=O)[O-])NC(=O)[C@@H](N)Cc1ccccc1` (HELM PEPTIDE1{F.[N=C(NCCC[C@@H](N[*:1])C(=O)[*:2])N[N+](=O)[O-]].[CO[*:1]]}$$$$V2.0), the Ki in test [1] was 150 µM; in test [2] it was 7500 µM; in test [3], 90 µM. For the same compound, in test [4], the Selectivity came to 1.7.

With `NCc1cccc(NC[C@@H](N)CCC/N=C(\N)N[N+](=O)[O-])c1`, the inhibitory constant (Ki) is 194 µM in test [1], 80 µM in test [2] and 0.21 µM in test [3].

In the case of `N/C(=N\CCC[C@@H](NC(=O)[C@H](N)Cc1ccccc1)C(=O)O)N[N+](=O)[O-]` (HELM PEPTIDE1{[dF].[N=C(NCCC[C@@H](N[*:1])C(=O)O)N[N+](=O)[O-]]}$$$$V2.0), the values for the Ki in test [1], in test [2] and in test [3] were 90 µM, 13600 µM and 17 µM, respectively. The compound further came in with a Selectivity in test [4] of 5.3.

`[H]/N=C(/NCCC[C@H](N)C(=O)N[C@H]1CNC(C(N)=O)C1)N[N+](=O)[O-]` (stereo partly drawn): the Ki in test [2] is 29.5 µM; in test [3], 0.074 µM.

On to `NC(=O)[C@H](N)NC(=O)[C@@H](N)CCC/N=C(/N)N[N+](=O)[O-]`, for which the results for the Ki in test [1], in test [2] and in test [3] were 261 µM, 61 µM and 1.1 µM, respectively. For the same compound, the Selectivity in test [4] is 237.

Regarding `NCCCC[C@@H](N)C(=O)N[C@H](CCC/N=C(/N)N[N+](=O)[O-])C(N)=O` (HELM PEPTIDE1{[dK].[N=C(NCCC[C@@H](N[*:1])C(=O)[*:2])N[N+](=O)[O-]].[am]}$$$$V2.0), the Ki in test [1] was found to be 30 µM; in test [2] it was 910 µM; in test [3] it was 0.89 µM.
